This test addresses Serine-protein kinase ATM (Homo sapiens, UniProt Q13315). The experiment in a line: Inhibition of ATM (unknown origin) assessed as ATM-dependent phosphorylation using GST-p53 ser15 as substrate.

pIC50: −log10 of the molar value.

The term pIC50 denotes the IC50 on a negative log10 scale, so that one unit is a factor of ten.

Chain of Serine-protein kinase ATM (Q13315 whole entry): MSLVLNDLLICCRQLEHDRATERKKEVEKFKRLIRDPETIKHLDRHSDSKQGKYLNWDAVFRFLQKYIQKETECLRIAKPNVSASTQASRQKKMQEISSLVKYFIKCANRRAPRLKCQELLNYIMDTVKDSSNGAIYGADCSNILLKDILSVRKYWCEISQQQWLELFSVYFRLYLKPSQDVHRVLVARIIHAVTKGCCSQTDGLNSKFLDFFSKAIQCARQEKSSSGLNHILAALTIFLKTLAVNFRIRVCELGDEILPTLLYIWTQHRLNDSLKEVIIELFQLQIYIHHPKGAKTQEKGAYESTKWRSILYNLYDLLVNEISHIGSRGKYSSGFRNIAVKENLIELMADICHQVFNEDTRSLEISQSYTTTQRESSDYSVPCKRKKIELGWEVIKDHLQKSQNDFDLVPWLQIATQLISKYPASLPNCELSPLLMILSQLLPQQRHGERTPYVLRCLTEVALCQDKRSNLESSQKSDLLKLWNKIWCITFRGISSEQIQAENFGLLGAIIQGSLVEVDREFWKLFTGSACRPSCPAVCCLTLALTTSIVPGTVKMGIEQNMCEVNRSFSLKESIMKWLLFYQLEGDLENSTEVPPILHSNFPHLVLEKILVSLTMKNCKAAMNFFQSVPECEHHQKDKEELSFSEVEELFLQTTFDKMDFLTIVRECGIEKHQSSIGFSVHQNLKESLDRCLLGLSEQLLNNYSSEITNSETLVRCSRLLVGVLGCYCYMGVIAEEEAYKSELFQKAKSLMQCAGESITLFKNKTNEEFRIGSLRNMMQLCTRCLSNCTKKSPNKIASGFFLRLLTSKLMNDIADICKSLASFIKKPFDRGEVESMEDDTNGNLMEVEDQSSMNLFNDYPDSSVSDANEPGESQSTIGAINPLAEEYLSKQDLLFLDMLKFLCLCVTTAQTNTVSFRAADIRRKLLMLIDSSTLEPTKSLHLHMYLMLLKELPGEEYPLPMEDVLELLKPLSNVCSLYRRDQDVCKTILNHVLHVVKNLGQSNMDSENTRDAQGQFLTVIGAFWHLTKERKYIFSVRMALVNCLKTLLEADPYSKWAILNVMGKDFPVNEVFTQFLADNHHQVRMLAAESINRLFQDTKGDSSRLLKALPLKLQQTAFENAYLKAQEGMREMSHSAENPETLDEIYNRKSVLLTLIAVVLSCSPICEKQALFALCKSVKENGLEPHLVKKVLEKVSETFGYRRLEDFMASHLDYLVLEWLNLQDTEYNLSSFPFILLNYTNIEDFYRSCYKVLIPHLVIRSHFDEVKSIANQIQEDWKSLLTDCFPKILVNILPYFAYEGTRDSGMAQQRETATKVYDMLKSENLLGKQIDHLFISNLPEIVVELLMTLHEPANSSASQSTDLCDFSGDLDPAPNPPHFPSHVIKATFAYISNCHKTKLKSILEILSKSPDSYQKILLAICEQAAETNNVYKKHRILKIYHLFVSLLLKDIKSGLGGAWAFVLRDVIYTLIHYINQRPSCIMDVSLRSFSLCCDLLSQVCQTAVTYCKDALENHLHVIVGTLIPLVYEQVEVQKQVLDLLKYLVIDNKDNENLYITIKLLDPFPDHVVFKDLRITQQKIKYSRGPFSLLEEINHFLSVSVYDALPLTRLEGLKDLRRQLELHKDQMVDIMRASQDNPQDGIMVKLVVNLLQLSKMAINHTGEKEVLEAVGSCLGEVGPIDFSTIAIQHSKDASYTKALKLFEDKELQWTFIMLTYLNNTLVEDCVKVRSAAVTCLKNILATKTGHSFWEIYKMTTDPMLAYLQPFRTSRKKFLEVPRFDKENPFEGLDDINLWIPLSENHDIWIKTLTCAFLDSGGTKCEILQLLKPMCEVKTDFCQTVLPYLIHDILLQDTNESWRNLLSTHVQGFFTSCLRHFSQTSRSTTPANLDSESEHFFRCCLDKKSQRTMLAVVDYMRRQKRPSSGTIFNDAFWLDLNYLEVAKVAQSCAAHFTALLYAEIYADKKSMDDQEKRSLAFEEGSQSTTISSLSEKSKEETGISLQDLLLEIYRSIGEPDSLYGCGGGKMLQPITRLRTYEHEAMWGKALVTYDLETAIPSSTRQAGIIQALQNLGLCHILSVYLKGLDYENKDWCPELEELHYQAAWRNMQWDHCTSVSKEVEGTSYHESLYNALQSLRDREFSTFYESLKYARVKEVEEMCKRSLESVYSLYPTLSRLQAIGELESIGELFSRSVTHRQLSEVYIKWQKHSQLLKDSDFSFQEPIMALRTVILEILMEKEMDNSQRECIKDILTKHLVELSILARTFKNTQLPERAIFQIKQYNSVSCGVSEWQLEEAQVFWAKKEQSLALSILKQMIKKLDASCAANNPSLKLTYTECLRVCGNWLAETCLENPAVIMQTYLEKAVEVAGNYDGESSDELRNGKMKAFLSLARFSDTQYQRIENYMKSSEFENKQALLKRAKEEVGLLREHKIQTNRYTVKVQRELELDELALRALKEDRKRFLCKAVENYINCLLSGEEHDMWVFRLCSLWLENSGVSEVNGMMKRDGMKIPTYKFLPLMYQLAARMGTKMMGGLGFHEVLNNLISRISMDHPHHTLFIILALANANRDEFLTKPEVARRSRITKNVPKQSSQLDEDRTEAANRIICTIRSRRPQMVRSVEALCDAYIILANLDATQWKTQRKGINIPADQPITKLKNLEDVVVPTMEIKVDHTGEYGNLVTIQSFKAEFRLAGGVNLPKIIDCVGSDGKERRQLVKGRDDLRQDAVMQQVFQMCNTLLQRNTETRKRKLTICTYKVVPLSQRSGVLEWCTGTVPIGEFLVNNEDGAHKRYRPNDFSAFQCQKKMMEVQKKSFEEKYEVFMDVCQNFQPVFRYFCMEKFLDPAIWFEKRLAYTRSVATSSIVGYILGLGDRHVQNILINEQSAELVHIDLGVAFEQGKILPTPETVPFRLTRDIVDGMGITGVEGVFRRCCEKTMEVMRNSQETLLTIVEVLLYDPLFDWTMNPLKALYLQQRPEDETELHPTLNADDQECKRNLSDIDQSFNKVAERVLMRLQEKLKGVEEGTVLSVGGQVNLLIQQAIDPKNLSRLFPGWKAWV

Regarding `CC(C)n1c(=O)n(C)c2cnc3cc(F)c(-c4ccc(OCCCN5CCCCC5)nc4)cc3c21` [Azd-1390], the pIC50 was 10.05.

These data come from BindingDB's records for doi:10.1021/acs.jmedchem.0c00766 (Istituto Italiano Di Tecnologia, 2020).
